Columns and labels:
[1] = system: benzodiazepine receptor; test: in vivo binding test (reduction of specific flunitrazepam binding in a living brain); details: dose reducing specific binding of flunitrazepam to the benzodiazepine receptor in a living brain to 50% of the control value
Description: The ED50 in vivo value represents the dose of a test compound effecting a reduction in specific binding of flunitrazepam to the benzodiazepine receptor in a living brain to 50% of the control value.

[2] = chimney test (motor discoordination); assay type: in vivo; details: ip, higher ED50 is better, as it indicates lower activity in inducing motor discoordination
Experimental: The chimney test was performed according to the method of Poissier, Jr., et al. Med. Exp. 3: 81-84 (1960). The higher the ED50 value in the chimney test the better, since this indicates a lower activity in inducing motor discoordination.

[3] = bioavailability in rats; details: rat, in vivo

Row | SMILES | ED50 mg/kg in vivo [1] [mg/kg] | TD50 [2] [mg/kg] | bioavailability [3] [%]
1 | CCOC(=O)c1ncc2[nH]c3ccc(OCc4ccccc4)cc3c2c1COC [A, 6-benzyloxy-4-methoxymethyl-beta-carboline-3-carboxylic acid ethyl ester] | 5.6 | 12.1 | 17
2 | COCc1c(C(=O)OC(C)C)ncc2[nH]c3ccc(OCc4ccccc4)cc3c12 [B, 6-benzyloxy-4-methoxymethyl-beta-carboline-3-carboxylic acid ispropyl ester] | 0.4 | > 50 | 32
